From patent publication US10844057B2, “Process for preparing JAK inhibitors and intermediates thereof” (priority 2018, dated 2020)

Tests used:
JAK2 = JAK2 (Homo sapiens (Human), UniProt O60674); test: Biochemical JAK kinase assay (LanthaScreen), JAK2; conditions: converted from pIC50 using Cheng-Prusoff; ATP 3 μM
Experimental: Assay 1: Biochemical JAK Kinase Assays
A panel of four LanthaScreen JAK biochemical assays (JAK1, 2, 3 and Tyk2) were carried in a common kinase reaction buffer (50 mM HEPES, pH 7.5, 0.01% Brij-35, 10 mM MgCl2, and 1 mM EGTA). Recombinant GST-tagged JAK enzymes and a GFP-tagged STAT1 peptide substrate were obtained from Life Technologies.
Serially diluted compounds were pre-incubated with each of the four JAK enzymes and the substrate in white 384-well microplates (Corning) at ambient temperature for 1 h. ATP was subsequently added to initiate the kinase reactions in 10 μL total volume, with 1% DMSO. […] Kinase reactions were allowed to proceed for 1 hour at ambient temperature before a 10 μL preparation of EDTA (10 mM final concentration) and Tb-anti-pSTAT1 (pTyr701) antibody (Life Technologies, 2 nM final concentration) in TR-FRET dilution buffer (Life Technologies) was added. The plates were allowed to incubate at ambient temperature for 1 h before being read on the EnVision reader (Perkin Elmer). Emission ratio signals (520 nm/495 nm) were recorded and utilized to calculate the percent inhibition values based on DMSO and background controls.
For dose-response analysis, percent inhibition data were plotted vs. compound concentrations, and IC50 values were determined from a 4-parameter robust fit model with the Prism software (GraphPad Software). Results were expressed as pIC50 (negative logarithm of IC50) and subsequently converted to pKi (negative logarithm of dissociation constant, Ki) using the Cheng-Prusoff equation.

[1] = test system: TSLP-evoked TARC release in human peripheral blood mononuclear cells; test: Inhibition of TSLP-evoked TARC release in human peripheral blood mononuclear cells; assay type: cell-based; conditions: human PBMC, 3 to 5 donors, TSLP 10 ng/mL, 48 hours, ELISA; read-out: pIC50 ± st. dev., inhibition of TSLP-evoked TARC release (converted)
Description: Assay 4: Inhibition of TSLP-Evoked TARC Release in Human Peripheral Blood Mononuclear Cells
Thymic stromal lymphopoietin (TSLP) and thymus and activation-regulated chemokine (TARC) are overexpressed in asthmatic airways, and correlate with disease severity. In the lungs, TSLP may be released by bronchial epithelial cells in response to allergens and viral infections. TSLP signals through an IL-7Rα/TSLPR heterodimer found in a broad range of tissues and cell types, including epithelial cells, endothelial cells, neutrophils, macrophages, and mast cells. The binding of TSLP to its receptor induces a conformational change that activates JAK1 and JAK2 to phosphorylate various transcription factors, including STAT3 and STAT5. In immune cells, this triggers a cascade of intracellular events that result in cell proliferation, anti-apoptosis, dendritic cell migration, and production of Th2 cytokines and chemokines. In peripheral blood mononuclear cells (PBMC), TSLP has a proinflammatory effect by activating myeloid dendritic cells to attract and stimulate T cells, a process mediated by the chemoattractant TARC.
The potencies of the test compounds were measured for inhibition of TARC release.
PBMC aliquots (previously isolated from whole blood and frozen in aliquots at −80° C.) from 3 to 5 donors were thawed at 37° C. and added dropwise to 40 mL pre-warmed, sterile-filtered, complete RPMI media in 50 mL Falcon tubes. Cells were pelleted and resuspended in complete media at 2.24×10^6 cells/mL. […] Cells were allowed to rest for 1 hour at 37° C. with 5% CO2.
Compounds were received as 10 mM stock solutions in DMSO. 3.7-fold serial dilutions were performed to generate 9 concentrations of test compound in DMSO at 300× the final assay test concentration. […] 95 μL of 0.2% DMSO in complete media was added to the untreated control wells. Cells were pre-treated with compound for 1 hour at 37° C. with 5% CO2 prior to stimulation.
Immediately prior to use, an aliquot was thawed and prepared at 20× the final assay concentration in complete media. 10 μL of 20×TSLP was added to each well of PBMC, for a final assay concentration of 10 ng/mL. 10 μL of complete media was added to the unstimulated control wells. Cells were stimulated in the presence of compound for 48 hours at 37° C. with 5% CO2.
Following stimulation, the cell culture supernatants were harvested and TARC levels were detected by enzyme-linked immunosorbent assay (ELISA), using Human CCL17/TARC Quantikine ELISA Kit (R&D Systems # DDN00) according to the manufacturer's instructions.
For dose response analysis, the log [test compound (M)] was plotted versus the percent response values for each donor, and IC50 values were determined using a nonlinear regression analysis with GraphPad Prism Software using the 4-parameter sigmoidal dose-response algorithm with variable slope. Data are expressed as mean pIC50 (negative decadic logarithm IC50) values calculated from pIC50 values of individual donors and rounded to one decimal place.

JAK2, sequence (O60674 whole entry): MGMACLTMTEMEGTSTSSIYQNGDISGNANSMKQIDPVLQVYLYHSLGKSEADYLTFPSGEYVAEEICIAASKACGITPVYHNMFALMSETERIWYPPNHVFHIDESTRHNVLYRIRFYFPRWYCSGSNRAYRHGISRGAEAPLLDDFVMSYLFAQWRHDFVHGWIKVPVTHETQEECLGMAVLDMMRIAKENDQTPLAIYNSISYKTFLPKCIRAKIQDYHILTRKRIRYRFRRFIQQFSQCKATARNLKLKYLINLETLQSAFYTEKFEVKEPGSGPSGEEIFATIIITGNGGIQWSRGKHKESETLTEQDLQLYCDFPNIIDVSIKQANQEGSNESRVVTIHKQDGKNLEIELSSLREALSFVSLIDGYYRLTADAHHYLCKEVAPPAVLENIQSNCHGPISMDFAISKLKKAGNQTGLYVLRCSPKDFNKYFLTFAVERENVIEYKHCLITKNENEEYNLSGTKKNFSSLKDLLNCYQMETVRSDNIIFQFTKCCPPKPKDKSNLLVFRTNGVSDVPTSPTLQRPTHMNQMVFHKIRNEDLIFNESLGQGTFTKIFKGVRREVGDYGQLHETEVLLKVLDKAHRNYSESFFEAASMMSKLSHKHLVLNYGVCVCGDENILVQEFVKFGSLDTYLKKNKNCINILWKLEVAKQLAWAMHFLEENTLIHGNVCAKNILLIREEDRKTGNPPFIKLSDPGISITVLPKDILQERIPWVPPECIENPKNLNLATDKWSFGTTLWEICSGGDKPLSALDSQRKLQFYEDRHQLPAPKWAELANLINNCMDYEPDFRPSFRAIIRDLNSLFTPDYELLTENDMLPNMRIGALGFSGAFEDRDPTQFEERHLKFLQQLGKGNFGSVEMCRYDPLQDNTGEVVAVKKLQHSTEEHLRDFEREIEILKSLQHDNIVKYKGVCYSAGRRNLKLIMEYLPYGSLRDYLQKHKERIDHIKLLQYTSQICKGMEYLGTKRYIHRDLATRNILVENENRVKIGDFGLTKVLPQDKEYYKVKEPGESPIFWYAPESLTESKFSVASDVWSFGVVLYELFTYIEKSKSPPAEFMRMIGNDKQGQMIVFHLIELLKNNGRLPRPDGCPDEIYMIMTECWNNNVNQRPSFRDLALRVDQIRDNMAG

Structure (SMILES): CCc1cc(O)c(F)cc1-c1ccc2c(-c3nc4c([nH]3)CN(C(C)C)[C@H](C(=O)N3CC(N(C)C)C3)C4)n[nH]c2c1 [Example 8, (S)-(3-(dimethylamino)azetidin-1-yl)(2-(6-(2-ethyl-5-fluoro-4-hydroxyphenyl)-1H-indazol-3-yl)-5-isopropyl-4,5,6,7-tetrahydro-3H-imidazo[4,5-c]pyridin-6-yl)methanone]
- JAK2 pKi (JAK2): 10.8
- IC50 [1]: 100 nM
